Experimental data as given in PubChem BioAssay AID2060908 (Molecular Pharmacology Branch, DTP, NCI, 2025).
pIC50: −log10 of the molar value.

Test system: 186277-243-T-J2-PDC complex spheroids, viability
Test: Anticancer human tumor 186277-243-T-J2-PDC patient-derived colon adenocarcinoma cell line growth inhibition [RAS]
Settings: for viability, T/C: stronger effect = lower value
Outline: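 Tumour cells grown as complex spheroids with HUVEC endothelial cells and mesenchymal stem cells, treated with RAS pathway inhibitor combinations. Each agent spans half-log steps from near clinical Cmax, or 10 microM where Cmax is unknown.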

[1] = curve of first compound, second compound 0.000949 µM
[2] = curve of first compound, second compound 0.003 µM
[3] = curve of first compound, second compound 0.00949 µM
[4] = curve of first compound, second compound 0.03 µM
[5] = curve of first compound, second compound 0.0949 µM
[6] = curve of first compound, second compound 0.3 µM
[7] = second compound 0.000949 µM, first compound 0.0316 µM
[8] = second compound 0.000949 µM, first compound 0.1 µM
[9] = second compound 0.000949 µM, first compound 0.316 µM
[10] = second compound 0.000949 µM, first compound 1 µM
[11] = second compound 0.003 µM, first compound 0.0316 µM
[12] = second compound 0.003 µM, first compound 0.1 µM
[13] = second compound 0.003 µM, first compound 0.316 µM
[14] = second compound 0.003 µM, first compound 1 µM
[15] = second compound 0.00949 µM, first compound 0.0316 µM
[16] = second compound 0.00949 µM, first compound 0.1 µM
[17] = second compound 0.00949 µM, first compound 0.316 µM
[18] = second compound 0.00949 µM, first compound 1 µM
[19] = second compound 0.03 µM, first compound 0.0316 µM
[20] = second compound 0.03 µM, first compound 0.1 µM
[21] = second compound 0.03 µM, first compound 0.316 µM
[22] = second compound 0.03 µM, first compound 1 µM
[23] = second compound 0.0949 µM, first compound 0.0316 µM
[24] = second compound 0.0949 µM, first compound 0.1 µM
[25] = second compound 0.0949 µM, first compound 0.316 µM
[26] = second compound 0.0949 µM, first compound 1 µM
[27] = second compound 0.3 µM, first compound 0.0316 µM
[28] = second compound 0.3 µM, first compound 0.1 µM
[29] = second compound 0.3 µM, first compound 0.316 µM
[30] = second compound 0.3 µM, first compound 1 µM
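Also: spheroids exposed to compounds for 7 days before viability read.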

C[C@@H](NC(=O)c1ncnc(N)c1Cl)c1ncc(C(=O)Nc2cc(C(F)(F)F)c(Cl)cn2)s1 + CCn1c(-c2cccnc2C(C)OC)c2c3cc(ccc31)N1CCOC(CC(NC(=O)C(C(C)C)N(C)C(=O)C3(F)CCN(C(=O)C#CC(C)(C)N(C)C)CC3)C(=O)N3CCCC(N3)C(=O)OCC(C)(C)C2)C1
pIC50 [1]: < 5.00
pIC50 [2]: < 5.00
pIC50 [3]: < 5.00
pIC50 [4]: < 5.00
pIC50 [5]: < 5.00
pIC50 [6]: < 5.00
viability, T/C [7]: 103%
viability, T/C [8]: 85.1%
viability, T/C [9]: 87.7%
viability, T/C [10]: 96.6%
viability, T/C (second compound 0.000949 µM, first compound 3.16 µM): 104%
viability, T/C (second compound 0.000949 µM, first compound 10 µM): 80.5%
viability, T/C [11]: 91.5%
viability, T/C [12]: 84.5%
viability, T/C [13]: 90.7%
viability, T/C [14]: 90.1%
viability, T/C (second compound 0.003 µM, first compound 3.16 µM): 92.9%
viability, T/C (second compound 0.003 µM, first compound 10 µM): 95.1%
viability, T/C [15]: 101%
viability, T/C [16]: 95.3%
viability, T/C [17]: 93.1%
viability, T/C [18]: 105%
viability, T/C (second compound 0.00949 µM, first compound 3.16 µM): 94.6%
viability, T/C (second compound 0.00949 µM, first compound 10 µM): 82.6%
viability, T/C [19]: 93.8%
viability, T/C [20]: 95.4%
viability, T/C [21]: 89.2%
viability, T/C [22]: 85.8%
viability, T/C (second compound 0.03 µM, first compound 3.16 µM): 95.7%
viability, T/C (second compound 0.03 µM, first compound 10 µM): 72.5%
viability, T/C [23]: 102%
viability, T/C [24]: 116%
viability, T/C [25]: 104%
viability, T/C [26]: 113%
viability, T/C (second compound 0.0949 µM, first compound 3.16 µM): 110%
viability, T/C (second compound 0.0949 µM, first compound 10 µM): 76.3%
viability, T/C [27]: 109%
viability, T/C [28]: 120%
viability, T/C [29]: 114%
viability, T/C [30]: 112%
viability, T/C (second compound 0.3 µM, first compound 3.16 µM): 103%
viability, T/C (second compound 0.3 µM, first compound 10 µM): 57%

CC(C)NCC(C(=O)N1CCN(c2ncnc3c2C(C)CC3O)CC1)c1ccc(Cl)cc1 (stereo not drawn)
viability, T/C (compound 0.0316 µM): 86% [middle of 4 runs]
viability, T/C (compound 0.1 µM): 89.2% [middle of 4 runs]
viability, T/C (compound 0.316 µM): 97.7% [middle of 4 runs]
viability, T/C (compound 1 µM): 68.8% [middle of 4 runs]
viability, T/C (compound 3.16 µM): 48% [middle of 4 runs]
viability, T/C (compound 10 µM): 32.2% [middle of 4 runs]
IC50 (curve of compound): 2.59 µM [middle of 4 runs]

C=CC(=O)Nc1cc(Nc2nccc(-c3cn(C)c4ccccc34)n2)c(OC)cc1N(C)CCN(C)C + CCn1c(-c2cccnc2C(C)OC)c2c3cc(ccc31)N1CCOC(CC(NC(=O)C(C(C)C)N(C)C(=O)C3(F)CCN(C(=O)C#CC(C)(C)N(C)C)CC3)C(=O)N3CCCC(N3)C(=O)OCC(C)(C)C2)C1
pIC50 [1]: < 6.00
pIC50 [2]: < 6.00
pIC50 [3]: < 6.00
pIC50 [4]: < 6.00
pIC50 [5]: < 6.00
pIC50 [6]: < 6.00
viability, T/C (second compound 0.000949 µM, first compound 0.00316 µM): 94.2%
viability, T/C (second compound 0.000949 µM, first compound 0.01 µM): 86.9%
viability, T/C [7]: 90.4%
viability, T/C [8]: 83.8%
viability, T/C [9]: 103%
viability, T/C [10]: 95.7%
viability, T/C (second compound 0.003 µM, first compound 0.00316 µM): 101%
viability, T/C (second compound 0.003 µM, first compound 0.01 µM): 107%
viability, T/C [11]: 107%
viability, T/C [12]: 109%
viability, T/C [13]: 110%
viability, T/C [14]: 91.6%
viability, T/C (second compound 0.00949 µM, first compound 0.00316 µM): 116%
viability, T/C (second compound 0.00949 µM, first compound 0.01 µM): 107%
viability, T/C [15]: 111%
viability, T/C [16]: 104%
viability, T/C [17]: 121%
viability, T/C [18]: 81%
viability, T/C (second compound 0.03 µM, first compound 0.00316 µM): 96.9%
viability, T/C (second compound 0.03 µM, first compound 0.01 µM): 97.4%
viability, T/C [19]: 106%
viability, T/C [20]: 91.8%
viability, T/C [21]: 101%
viability, T/C [22]: 82.2%
viability, T/C (second compound 0.0949 µM, first compound 0.00316 µM): 109%
viability, T/C (second compound 0.0949 µM, first compound 0.01 µM): 123%
viability, T/C [23]: 119%
viability, T/C [24]: 123%
viability, T/C [25]: 106%
viability, T/C [26]: 78.3%
viability, T/C (second compound 0.3 µM, first compound 0.00316 µM): 105%
viability, T/C (second compound 0.3 µM, first compound 0.01 µM): 105%
viability, T/C [27]: 109%
viability, T/C [28]: 103%
viability, T/C [29]: 82.8%
viability, T/C [30]: 73.1%

CCn1c(-c2cccnc2C(C)OC)c2c3cc(ccc31)N1CCOC(CC(NC(=O)C(C(C)C)N(C)C(=O)C3(F)CCN(C(=O)C#CC(C)(C)N(C)C)CC3)C(=O)N3CCCC(N3)C(=O)OCC(C)(C)C2)C1 (stereo not drawn)
viability, T/C (compound 0.000949 µM): 96.7% [middle of 8 runs]
viability, T/C (compound 0.003 µM): 96.3% [middle of 8 runs]
viability, T/C (compound 0.03 µM): 102% [middle of 8 runs]
viability, T/C (compound 0.3 µM): 103% [middle of 8 runs]
pIC50 (compound alone, run of 05/20/2024): < 6.52

CC(Nc1ccc2c(c1)OCCn1cc(N3C(=O)OCC3C(F)F)nc1-2)C(N)=O (stereo not drawn) + C#Cc1c(F)ccc2cc(O)cc(-c3ncc4c(N5CC6CCC(C5)N6)nc(OCC56CCCN5CC(F)C6)nc4c3F)c12
pIC50 (curve of first compound, second compound 0.0316 µM): > 7.50
pIC50 (curve of first compound, second compound 0.1 µM): > 7.50
pIC50 (curve of first compound, second compound 0.316 µM): > 7.50
pIC50 (curve of first compound, second compound 1 µM): > 7.50
pIC50 (curve of first compound, second compound 3.16 µM): > 7.50
pIC50 (curve of first compound, second compound 10 µM): > 7.50
viability, T/C (second compound 0.0316 µM, first compound 0.0316 µM): 45.9%
viability, T/C (second compound 0.0316 µM, first compound 0.1 µM): 39.7%
viability, T/C (second compound 0.0316 µM, first compound 0.316 µM): 16.1%
viability, T/C (second compound 0.0316 µM, first compound 1 µM): 7.04%
viability, T/C (second compound 0.0316 µM, first compound 3.16 µM): 3.9%
viability, T/C (second compound 0.0316 µM, first compound 10 µM): 3.75%
viability, T/C (second compound 0.1 µM, first compound 0.0316 µM): 25.7%
viability, T/C (second compound 0.1 µM, first compound 0.1 µM): 16%
viability, T/C (second compound 0.1 µM, first compound 0.316 µM): 4.89%
viability, T/C (second compound 0.1 µM, first compound 1 µM): 2.76%
viability, T/C (second compound 0.1 µM, first compound 3.16 µM): 1.89%
viability, T/C (second compound 0.1 µM, first compound 10 µM): 2.88%
viability, T/C (second compound 0.316 µM, first compound 0.0316 µM): 18.2%
viability, T/C (second compound 0.316 µM, first compound 0.1 µM): 7.51%
viability, T/C (second compound 0.316 µM, first compound 0.316 µM): 2.9%
viability, T/C (second compound 0.316 µM, first compound 1 µM): 2.32%
viability, T/C (second compound 0.316 µM, first compound 3.16 µM): 1.28%
viability, T/C (second compound 0.316 µM, first compound 10 µM): 1.02%
viability, T/C (second compound 1 µM, first compound 0.0316 µM): 9.56%
viability, T/C (second compound 1 µM, first compound 0.1 µM): 5.56%
viability, T/C (second compound 1 µM, first compound 0.316 µM): 2.6%
viability, T/C (second compound 1 µM, first compound 1 µM): 1.95%
viability, T/C (second compound 1 µM, first compound 3.16 µM): 1.11%
viability, T/C (second compound 1 µM, first compound 10 µM): 1.01%
viability, T/C (second compound 3.16 µM, first compound 0.0316 µM): 8.36%
viability, T/C (second compound 3.16 µM, first compound 0.1 µM): 4.7%
viability, T/C (second compound 3.16 µM, first compound 0.316 µM): 2.45%
viability, T/C (second compound 3.16 µM, first compound 1 µM): 1.84%
viability, T/C (second compound 3.16 µM, first compound 3.16 µM): 3.64%
viability, T/C (second compound 3.16 µM, first compound 10 µM): 0.74%
viability, T/C (second compound 10 µM, first compound 0.0316 µM): 6.16%
viability, T/C (second compound 10 µM, first compound 0.1 µM): 2.81%
viability, T/C (second compound 10 µM, first compound 0.316 µM): 1.2%
viability, T/C (second compound 10 µM, first compound 1 µM): 0.66%
viability, T/C (second compound 10 µM, first compound 3.16 µM): 0.3%
viability, T/C (second compound 10 µM, first compound 10 µM): 0.16%
